Results on one compound are retold here after patent US8119148B2, “Suspension comprising oxcarbazepine” (Novartis Pharmaceuticals Corporation, priority 1999, dated 2012).

This data set is described as follows: Solubility in water. The data set is classed as physicochemical. Particulars: pH 5.8, water, at 25° C. and pH of 5.8 to 6.0. The protocol: A wide range of container sizes may be employed. Container size may be conveniently categorised as Low-Volume, e.g., 100 ml or less and High-Volume, e.g., above 100 ml and typically 250 ml.

Molecules are shown by their SMILES. Values after ≈ are worked out from the molar mass of the structure shown.

`NC(=O)N1c2ccccc2CC(=O)c2ccccc21` [oxcarbazepine, 10,11-Dihydro-10-oxo-5H-di-benz[b,f]azepine-5-carboxamide] came in with a solubility of 3200 to 4200 µg/mL (≈ 12.7 to 16.6 mM).
